# Data reported in US20100209345A1, “Fluorinated Ligands for Targeting Peripheral Benzodiazepine Receptors” (Australian Nuclear Science & Technology Organisation, priority 2006, published 2010).
# Tests used:
# [1] = Biodistribution of 18F-labelled tracers in rats; assay type: in vivo
# Procedure: [^18F]Fluoride, in the form of H^18F, was produced by the ^18O(p,n)^18F nuclear reaction by bombardment of ^18O-enriched water target. The aqueous [^18F]fluoride solution was added to a 2.5-mL wheaton vial containing dry acetonitrile (1 mL), Kryptofix 2.2.2 (5 mg, 13.3 μmol) and potassium carbonate (2 mg, 14.5 μmol). The solvent was evaporated under a stream of nitrogen at 90° C. with a reducing vacuum. This azeotropic drying was repeated twice by further addition of acetonitrile (2×1 mL). The tosylate precursor 2-(2-(4-(2-tosylethoxy)phenyl)-6-chloroimidazo[1,2-a]pyridin-3-yl)-N,N-diethylacetamide (2 mg, 3.6 μmol) was dissolved in acetonitrile (1 ml) and added to the dried K222.K2CO3.KF complex. Stirring and heating at 90° C. continued for 10 to 15 mins before the reaction mixture was diluted with mobile phase and purified by reverse phase HPLC on an Alltech Alltima, C18, 10μ, 250×22 mm column eluting at 10 mLs/min with 45% acetonitrile, 55% water with 0.1% TFA.
# (§1) The biodistribution of PBR132* was undertaken in SD rats and analysis up to 4 h p.i. in the brain and peripheral tissues was performed. The specificity and selectivity of the tracer were assessed by pre-treatment with PBR and Central benzodiazepine receptor (CBR) specific ligands (1 mg/kg) 5 min prior to injection of PBR132*.
# (§2) The biodistribution of PBR 147* was performed in SD rats and brain and peripheral tissues were analysised at 15, 30 min, 1, and 4 h p.i. The specificity and selectivity of the tracer was assessed by pre-treatment of the animals with the PBR ligands PK11195 and Ro 5-4864 and with Flumazenil for CBR at 1 mg/kg 5 min prior to injection of PBR 147*
# (§3) The biodistribution of PBR102* and PBR111* were performed in SD rats and brain and peripheral tissues analysed at 15, 30 min, 1, and 4 h p.i. The specificity and selectivity of the tracers were assessed by pre-treatment with the PBR ligands PK11195 and Ro 5-4864 and with Flumazenil for CBR at 1 mg/kg 5 min prior to injection of the corresponding tracers.
# (§4) The specificity and selectivity of the tracers were assessed by pre-treatment with the PBR ligands PK11195 and Ro 5-4864 and with Flumazenil for CBR at 1 mg/kg 5 min prior to injection of the corresponding tracers.
# [2] = biological target: T1, peripheral benzodiazepine receptors (Rattus norvegicus, UniProt P16257); test: In vivo blocking / competition of tracer uptake by pre-treatment with PBR and CBR ligands; conditions: rats; for Tracer uptake after pre-treatment with PK 11195 / Tracer uptake after pre-treatment with Ro 5-4864: PBR-expressing tissues (brain/peripheral organs, adrenals apart); for Tracer uptake after pre-treatment with flumazenil (central benzodiazepine ligand): flumazenil 1 mg/kg 5 min prior to tracer, brain or peripheral organs
# T1 construct: high uptake in the tissues which have known PBR sites; from tissue; host or cells: organs of living SD rats (brain and peripheral tissues), in vivo
# Procedure: The criteria for significance were **p<0.01 (highly significant) and *p<0.05 (significant). No stars implies not statistical difference from normals or controls.
# as §1, §2, §3, §4
# [3] = system: central benzodiazepine receptors; test: In vitro binding, [3H]-Flumazenil, brain cortex membrane preparation; conditions: @ 10^−5M, [3H]-Flumazenil
# Procedure: Non-specific binding was determined with Flumazenil (20 μM). In both cases, incubations were terminated by rapid filtration through Whatman GF/B glass fibre. Filters were immediately washed 3 times with 5 mL ice-cold 50 mM Tris/HCl at pH 7.4. Filters were counted in a β-scintillation counter (Packard) to measure the amount of bound radioactivity. The IC50 of the compounds for the peripheral benzodiazepine binding site and the central benzodiazepine receptor were calculated using Kell 6 software.
# [4] = SD rats, 15 min, decay correction not stated
# [5] = SD rats, 4 hours, decay correction not stated
# [6] = rats, 15 min, corrected for decay of 18F
# [7] = rats, 30 min, corrected for decay of 18F
# [8] = rats, 60 min, corrected for decay of 18F
# [9] = rats, 4 hours, corrected for decay of 18F
smiles,measurement,setting,value
"CCN(CC)C(=O)Cc1c(-c2ccc(C(C)(C)C)cc2)nc2ccc([18F])nn12 [PBR132*, 2-(2-(4-tert-butylphenyl)-6-fluoroimidazo[1,2-b]pyridazin-3-yl)-N,N-diethylacetamide]",Biodistribution: Bone,[1]; [4],1 % ID/g
same,Biodistribution: Heart,[1]; [4],8 % ID/g
same,Biodistribution: Kidney,[1]; [4],4 % ID/g
same,Biodistribution: Lungs,[1]; [4],16 % ID/g
same,Biodistribution: Olfactory bulbs,[1]; [4],0.63 % ID/g
same,Biodistribution: Adrenals,"[1]; SD rats, 30 min, decay correction not stated",13 % ID/g
same,Biodistribution: Bone,[1]; [5],3.3 % ID/g
same,Biodistribution: Heart,[1]; [5],less than 2.3 % ID/g
same,Biodistribution: Kidney,[1]; [5],less than 2.3 % ID/g
same,Biodistribution: Lungs,[1]; [5],less than 2.3 % ID/g
same,Biodistribution: Olfactory bulbs,[1]; [5],0.25 % ID/g
same,Blood activity level / concentration in the blood over the 4 h study period,"[1]; SD rats, throughout 15 min to 4 h",low
same,Biodistribution: Adrenals,[1]; [6],10.03 ± 1.11 % ID/g
same,Biodistribution: Bladder,[1]; [6],0.73 ± 0.33 % ID/g
same,Biodistribution: Blood,[1]; [6],0.41 ± 0.05 % ID/g
same,Biodistribution: Bone,[1]; [6],1.04 ± 0.14 % ID/g
same,Biodistribution: Brain,[1]; [6],0.35 ± 0.03 % ID/g
same,Biodistribution: GIT,[1]; [6],1.08 ± 0.08 % ID/g
same,Biodistribution: Heart,[1]; [6],8.13 ± 0.77 % ID/g
same,Biodistribution: Kidney,[1]; [6],4.10 ± 0.28 % ID/g
same,Biodistribution: Liver,[1]; [6],1.22 ± 0.17 % ID/g
same,Biodistribution: Lungs,[1]; [6],16.09 ± 2.56 % ID/g
same,Biodistribution: Muscle,[1]; [6],0.89 ± 0.28 % ID/g
same,Biodistribution: Olfactory bulbs,[1]; [6],0.63 ± 0.09 % ID/g
same,Biodistribution: Pancreas,[1]; [6],2.01 ± 0.26 % ID/g
same,Biodistribution: Skin,[1]; [6],0.60 ± 0.09 % ID/g
same,Biodistribution: Spleen,[1]; [6],5.85 ± 0.93 % ID/g
same,Biodistribution: Stomach,[1]; [6],0.58 ± 0.19 % ID/g
same,Biodistribution: Testes,[1]; [6],0.31 ± 0.03 % ID/g
same,Biodistribution: Thymus,[1]; [6],0.78 ± 0.20 % ID/g
same,Biodistribution: Thyroid,[1]; [6],8.87 ± 1.06 % ID/g
same,Biodistribution: Adrenals,[1]; [7],13.21 ± 1.16 % ID/g
same,Biodistribution: Bladder,[1]; [7],0.87 ± 0.36 % ID/g
same,Biodistribution: Blood,[1]; [7],0.32 ± 0.05 % ID/g
same,Biodistribution: Bone,[1]; [7],1.25 ± 0.18 % ID/g
same,Biodistribution: Brain,[1]; [7],0.23 ± 0.02 % ID/g
same,Biodistribution: GIT,[1]; [7],1.36 ± 0.22 % ID/g
same,Biodistribution: Heart,[1]; [7],8.34 ± 0.86 % ID/g
same,Biodistribution: Kidney,[1]; [7],3.94 ± 0.54 % ID/g
same,Biodistribution: Liver,[1]; [7],1.18 ± 0.33 % ID/g
same,Biodistribution: Lungs,[1]; [7],11.58 ± 2.11 % ID/g
same,Biodistribution: Muscle,[1]; [7],0.91 ± 0.10 % ID/g
same,Biodistribution: Olfactory bulbs,[1]; [7],0.46 ± 0.11 % ID/g
same,Biodistribution: Pancreas,[1]; [7],1.97 ± 0.32 % ID/g
same,Biodistribution: Skin,[1]; [7],0.65 ± 0.08 % ID/g
same,Biodistribution: Spleen,[1]; [7],6.89 ± 0.80 % ID/g
same,Biodistribution: Stomach,[1]; [7],0.64 ± 0.11 % ID/g
same,Biodistribution: Testes,[1]; [7],0.31 ± 0.03 % ID/g
same,Biodistribution: Thymus,[1]; [7],0.80 ± 0.06 % ID/g
same,Biodistribution: Thyroid,[1]; [7],9.15 ± 0.87 % ID/g
same,Biodistribution: Adrenals,[1]; [8],11.24 ± 2.03 % ID/g
same,Biodistribution: Bladder,[1]; [8],0.84 ± 0.08 % ID/g
same,Biodistribution: Blood,[1]; [8],0.17 ± 0.00 % ID/g
same,Biodistribution: Bone,[1]; [8],2.06 ± 0.10 % ID/g
same,Biodistribution: Brain,[1]; [8],0.12 ± 0.00 % ID/g
same,Biodistribution: GIT,[1]; [8],1.78 ± 0.04 % ID/g
same,Biodistribution: Heart,[1]; [8],6.87 ± 0.53 % ID/g
same,Biodistribution: Kidney,[1]; [8],3.24 ± 0.15 % ID/g
same,Biodistribution: Liver,[1]; [8],0.67 ± 0.06 % ID/g
same,Biodistribution: Lungs,[1]; [8],6.40 ± 0.50 % ID/g
same,Biodistribution: Muscle,[1]; [8],0.50 ± 0.03 % ID/g
same,Biodistribution: Olfactory bulbs,[1]; [8],0.36 ± 0.05 % ID/g
same,Biodistribution: Pancreas,[1]; [8],1.20 ± 0.19 % ID/g
same,Biodistribution: Skin,[1]; [8],0.64 ± 0.07 % ID/g
same,Biodistribution: Spleen,[1]; [8],5.56 ± 0.67 % ID/g
same,Biodistribution: Stomach,[1]; [8],0.47 ± 0.05 % ID/g
same,Biodistribution: Testes,[1]; [8],0.32 ± 0.01 % ID/g
same,Biodistribution: Thymus,[1]; [8],0.88 ± 0.07 % ID/g
same,Biodistribution: Thyroid,[1]; [8],18.30 ± 1.00 % ID/g
same,Biodistribution: Adrenals,[1]; [9],13.51 ± 0.61 % ID/g
same,Biodistribution: Bladder,[1]; [9],0.99 ± 0.30 % ID/g
same,Biodistribution: Blood,[1]; [9],0.07 ± 0.00 % ID/g
same,Biodistribution: Bone,[1]; [9],3.28 ± 0.65 % ID/g
same,Biodistribution: Brain,[1]; [9],0.07 ± 0.00 % ID/g
same,Biodistribution: GIT,[1]; [9],2.93 ± 0.39 % ID/g
same,Biodistribution: Heart,[1]; [9],4.71 ± 0.31 % ID/g
same,Biodistribution: Kidney,[1]; [9],2.31 ± 0.17 % ID/g
same,Biodistribution: Liver,[1]; [9],0.31 ± 0.03 % ID/g
same,Biodistribution: Lungs,[1]; [9],2.42 ± 0.25 % ID/g
same,Biodistribution: Muscle,[1]; [9],0.24 ± 0.06 % ID/g
same,Biodistribution: Olfactory bulbs,[1]; [9],0.25 ± 0.03 % ID/g
same,Biodistribution: Pancreas,[1]; [9],0.57 ± 0.10 % ID/g
same,Biodistribution: Skin,[1]; [9],0.67 ± 0.17 % ID/g
same,Biodistribution: Spleen,[1]; [9],2.64 ± 0.36 % ID/g
same,Biodistribution: Stomach,[1]; [9],0.72 ± 0.24 % ID/g
same,Biodistribution: Testes,[1]; [9],0.42 ± 0.06 % ID/g
same,Biodistribution: Thymus,[1]; [9],1.02 ± 0.06 % ID/g
same,Biodistribution: Thyroid,[1]; [9],7.41 ± 0.68 % ID/g
same,Uptake in tissues which have known PBR sites,"[1]; rats, in vivo biodistribution",high uptake
same,Tracer uptake after pre-treatment with PK 11195,[2]; PK 11195 1 mg/kg 5 min prior to tracer,decreased
same,Tracer uptake after pre-treatment with PK 11195,"[2]; PK 11195 1 mg/kg 5 min prior to tracer, listed as [^18F]PBR132",blocking effect
same,Tracer uptake in the adrenals after pre-treatment with PK 11195,"[2]; PK 11195 1 mg/kg 5 min prior to tracer, adrenals",increase
same,Tracer uptake after pre-treatment with Ro 5-4864,[2]; Ro 5-4864 1 mg/kg 5 min prior to tracer,decreased
same,Tracer uptake after pre-treatment with Ro 5-4864,"[2]; Ro 5-4864 1 mg/kg 5 min prior to tracer, listed as [^18F]PBR132",blocking effect
same,Tracer uptake in the adrenals after pre-treatment with Ro 5-4864,"[2]; Ro 5-4864 1 mg/kg 5 min prior to tracer, adrenals",increase
same,Tracer uptake after pre-treatment with flumazenil (central benzodiazepine ligand),[2],no effect
same,Tracer uptake after pre-treatment with flumazenil (central benzodiazepine ligand),[2]; listed as [^18F]PBR132,does not reduce
same,Tracer uptake after pre-treatment with the non-radioactive analogue,"[2]; non-radioactive analogue 1 mg/kg, PBR-expressing tissues",blocking effect
"CCN(CC)C(=O)Cc1c(-c2ccc(OCCCF)cc2)nn2c(C)cc(C)nc12 [PBR 146, 2-(2-(4-(3-fluoropropoxy)phenyl)-5,7-dimethylpyrazolo[1,5-a]pyrimidin-3-yl)-N,N-diethylacetamide]","CBR, % @ 10^−5M",[3],50% @ 10^−5M
same,chromatographic logP,LogP HPLC,3.16 ± 0.1
